Measurements taken from PMC4381067, “How ‘arm-twisting’ by the inducer triggers activation of the MalT transcription factor, a typical signal transduction ATPase with numerous domains (STAND)” (Nucleic Acids Research, 2015).

How the values were obtained:
HMalT (His-tagged MalT) [1] = biological target: T1, HMalT (His-tagged MalT) (Escherichia coli, UniProt P06993, Q70C/E395C); experiment: filter-binding assay, dissociation of [α-32P]ADP complex chased by cold ADP; settings: labelled compound; oxidized form (C70-C395 disulfide), no DTT, with or without 20 mM maltotriose; buffer B pH 8.0, 10 mM Mg acetate, 25°C; 1 mM cold ADP chase
T1 construct: full-length, His-tagged; purified on Ni2+ resin then Superdex 200; monomeric in resting form, multimerizes with maltotriose and ATP

HMalT (His-tagged MalT) [2] = biological target: T2, HMalT (His-tagged MalT) (Escherichia coli, UniProt P06993); experiment: as above; settings: labelled compound; resting form, no maltotriose; buffer B pH 8.0, 10 mM Mg acetate, 25°C; 1 mM cold ADP chase
T2 construct: full-length, His-tagged; purified on Ni2+ resin then Superdex 200; monomeric in resting form, multimerizes with maltotriose and ATP
T2 sequence (P06993 1-901): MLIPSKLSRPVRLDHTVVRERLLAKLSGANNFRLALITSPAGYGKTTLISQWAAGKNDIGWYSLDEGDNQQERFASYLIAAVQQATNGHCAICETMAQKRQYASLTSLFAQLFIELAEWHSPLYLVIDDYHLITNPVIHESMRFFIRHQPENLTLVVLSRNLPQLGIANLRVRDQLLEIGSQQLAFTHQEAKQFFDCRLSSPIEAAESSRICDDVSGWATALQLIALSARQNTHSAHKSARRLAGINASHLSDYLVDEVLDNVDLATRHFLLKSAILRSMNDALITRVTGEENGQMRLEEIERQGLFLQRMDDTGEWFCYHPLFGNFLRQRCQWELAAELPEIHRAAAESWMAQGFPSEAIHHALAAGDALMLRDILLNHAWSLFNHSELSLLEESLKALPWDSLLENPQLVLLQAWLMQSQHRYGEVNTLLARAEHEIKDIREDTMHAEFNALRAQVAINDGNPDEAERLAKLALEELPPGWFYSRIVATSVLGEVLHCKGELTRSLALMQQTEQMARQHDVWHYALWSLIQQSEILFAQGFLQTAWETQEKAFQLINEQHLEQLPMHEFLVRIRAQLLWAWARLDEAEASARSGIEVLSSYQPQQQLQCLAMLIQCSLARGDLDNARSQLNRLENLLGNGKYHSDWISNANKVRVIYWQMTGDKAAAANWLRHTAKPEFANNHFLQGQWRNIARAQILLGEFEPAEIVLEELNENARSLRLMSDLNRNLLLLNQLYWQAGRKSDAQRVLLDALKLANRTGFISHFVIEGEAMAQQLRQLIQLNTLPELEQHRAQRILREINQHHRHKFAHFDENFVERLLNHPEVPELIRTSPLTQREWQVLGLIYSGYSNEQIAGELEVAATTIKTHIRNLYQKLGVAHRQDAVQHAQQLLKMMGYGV

HMalT (His-tagged MalT) [3] = biological target: T2, HMalT (His-tagged MalT); experiment: limited proteinase K proteolysis protection (arm-sensor hinge), SDS-PAGE quantification, binding isotherm; settings: 50 mM HEPES pH 8.0, 10.1 mM Mg acetate, 0.44 mM ATP, 25°C; no reducing agent; full saturation assumed at 50 mM; read-out: KD (apparent dissociation constant)
[4] = biological target: T3, HMalT^336-806 (arm-sensor polypeptide) (Escherichia coli, UniProt P06993); experiment: intrinsic tryptophan fluorescence titration, quadratic fit; format: binding; settings: 20 mM Tris-HCl pH 8.0, 0.2 M KCl, 20°C; 1 μM protein; excitation 295 nm, emission 323 nm
T3 construct: gene malT; arm-sensor fragment, residues 336-806, His-tagged; purified on Ni2+ resin then Superdex 200
T3 sequence (P06993 336-806): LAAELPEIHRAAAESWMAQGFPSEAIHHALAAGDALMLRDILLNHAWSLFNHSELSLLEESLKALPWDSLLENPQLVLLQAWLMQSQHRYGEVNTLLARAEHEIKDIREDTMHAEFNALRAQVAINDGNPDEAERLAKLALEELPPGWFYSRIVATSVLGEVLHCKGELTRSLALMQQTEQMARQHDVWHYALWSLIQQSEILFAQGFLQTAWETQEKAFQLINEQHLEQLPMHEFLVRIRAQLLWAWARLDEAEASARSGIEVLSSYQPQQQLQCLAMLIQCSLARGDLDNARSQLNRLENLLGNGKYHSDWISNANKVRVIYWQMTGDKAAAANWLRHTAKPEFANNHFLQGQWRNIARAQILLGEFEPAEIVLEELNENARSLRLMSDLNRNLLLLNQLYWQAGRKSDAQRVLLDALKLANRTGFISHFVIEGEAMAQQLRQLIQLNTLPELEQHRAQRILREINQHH

HMalT (His-tagged MalT) [5] = biological target: T1, HMalT (His-tagged MalT); experiment: limited proteinase K proteolysis protection (arm-sensor hinge), SDS-PAGE quantification, binding isotherm; settings: 50 mM HEPES pH 8.0, 10.1 mM Mg acetate, 0.44 mM ATP, 25°C; no reducing agent: oxidized form, C70-C395 disulfide locks NOD closed; full saturation assumed at 50 mM; read-out: KD (apparent dissociation constant)

T1 sequence (P06993 whole entry Q70C/E395C): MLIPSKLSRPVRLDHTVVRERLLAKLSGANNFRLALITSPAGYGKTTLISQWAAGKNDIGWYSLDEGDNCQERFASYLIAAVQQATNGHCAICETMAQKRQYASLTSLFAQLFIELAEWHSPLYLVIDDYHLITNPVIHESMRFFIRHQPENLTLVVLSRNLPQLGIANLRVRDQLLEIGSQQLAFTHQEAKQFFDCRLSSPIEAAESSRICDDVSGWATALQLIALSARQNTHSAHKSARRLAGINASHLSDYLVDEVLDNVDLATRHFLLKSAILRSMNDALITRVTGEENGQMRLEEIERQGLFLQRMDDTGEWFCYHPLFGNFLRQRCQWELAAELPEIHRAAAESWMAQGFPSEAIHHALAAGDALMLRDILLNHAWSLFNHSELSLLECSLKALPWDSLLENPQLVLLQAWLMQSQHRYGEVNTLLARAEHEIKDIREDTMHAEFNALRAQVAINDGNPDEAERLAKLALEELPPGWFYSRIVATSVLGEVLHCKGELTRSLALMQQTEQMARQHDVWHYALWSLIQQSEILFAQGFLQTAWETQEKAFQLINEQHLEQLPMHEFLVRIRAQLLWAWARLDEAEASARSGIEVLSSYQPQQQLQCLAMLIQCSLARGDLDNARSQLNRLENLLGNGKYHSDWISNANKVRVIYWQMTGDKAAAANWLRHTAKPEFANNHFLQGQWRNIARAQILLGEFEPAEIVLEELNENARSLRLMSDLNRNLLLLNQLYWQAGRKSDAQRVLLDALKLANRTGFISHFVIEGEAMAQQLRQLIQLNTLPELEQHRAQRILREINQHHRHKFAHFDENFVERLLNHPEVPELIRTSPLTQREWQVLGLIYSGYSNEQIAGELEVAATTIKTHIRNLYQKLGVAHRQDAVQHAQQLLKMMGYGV

| t1/2 (HMalT (His-tagged MalT) [1]) | t1/2 (HMalT (His-tagged MalT) [2]) | Kd (HMalT (His-tagged MalT) [3]) | Kd [4] | Kd (HMalT (His-tagged MalT) [5]) | Structure (SMILES) |
| --- | --- | --- | --- | --- | --- |
| > 8.33 h | 1.98 ± 0.183 h | – | – | – | Nc1ncnc2c1ncn2[C@@H]1O[C@H](COP(=O)(O)OP(=O)(O)O)[C@@H](O)[C@H]1O [ADP] |
| – | – | 131 ± 12 µM | 2.7 ± 1.2 µM | 2600 ± 500 µM | OC[C@H]1O[C@H](O[C@H]2[C@H](O)[C@@H](O)[C@@H](O[C@H]3[C@H](O)[C@@H](O)C(O)O[C@@H]3CO)O[C@@H]2CO)[C@H](O)[C@@H](O)[C@@H]1O (some centres unmarked) [maltotriose] |
